# From ChEMBL document CHEMBL4393687, “Multi-targeted ChEI-copper chelating molecules as neuroprotective agents” (Eur J Med Chem, 2019)
# pIC50: −log10 of the molar value. The source made the active and inactive calls. The rule behind the calls is not given here.
# How the values were obtained:
# [1] = biological target: Acetylcholinesterase (Electrophorus electricus) (UniProt O42275); experiment: Inhibition of electric eel AChE at 50 nM using acetylthiocholine iodide as substrate preincubated for 60 mins followed by substrate addition measured for 5 mins by Ellman's method
# [2] = biological target: Cholinesterase (Equus caballus) (UniProt P81908); experiment: Inhibition of equine serum BChE at 50 nM using acetylthiocholine iodide as substrate preincubated for 60 mins followed by substrate addition measured for 5 mins by Ellman's method
# [3] = Antioxidant activity assessed as DPPH free radical scavenging activity after 30 mins incubation in dark by UV-Visible spectrophotometric analysis; assay type: functional
# [4] = Metal chelating activity assessed as compound-Cu2+ complex formation by measuring shift in maximum absorption at 10 uM after 30 mins by UV-vis spectrophotometric analysis
# [5] = Metal chelating activity assessed as compound-Cu2+ complex formation at 1:1 ratio of test compound to CuCl2 incubated for 30 mins by UV-vis spectrophotometric analysis
# [6] = Metal chelating activity assessed as compound-Cu2+ complex formation at 1:2 ratio of test compound to CuCl2 incubated for 30 mins by UV-vis spectrophotometric analysis
# [7] = Cytotoxicity against mouse HT22 cells assessed as cell viability at 30 uM after 24 hrs by MTT assay relative to control; assay type: cell-based, HT-22; details: read-out: Activity
# [8] = Cytotoxicity against mouse HT22 cells assessed as cell viability at 100 uM after 24 hrs by MTT assay relative to control; assay type: cell-based, HT-22; details: read-out: Activity
# [9] = system: HT-22; experiment: Neuroprotective activity against glutamate-induced neuronal damage in mouse HT22 cells at 3 to 30 uM pretreated for 30 mins followed by glutamate challenge measured after 24 hrs by MTT assay; assay type: functional, cell-based
# [10] = Antioxidant activity assessed as DPPH free radical scavenging activity at 10 uM after 30 mins incubation in dark by UV-Visible spectrophotometric analysis relative to control; assay type: functional
# Sequence of Acetylcholinesterase (Electrophorus electricus) (O42275 24-633 limits assumed): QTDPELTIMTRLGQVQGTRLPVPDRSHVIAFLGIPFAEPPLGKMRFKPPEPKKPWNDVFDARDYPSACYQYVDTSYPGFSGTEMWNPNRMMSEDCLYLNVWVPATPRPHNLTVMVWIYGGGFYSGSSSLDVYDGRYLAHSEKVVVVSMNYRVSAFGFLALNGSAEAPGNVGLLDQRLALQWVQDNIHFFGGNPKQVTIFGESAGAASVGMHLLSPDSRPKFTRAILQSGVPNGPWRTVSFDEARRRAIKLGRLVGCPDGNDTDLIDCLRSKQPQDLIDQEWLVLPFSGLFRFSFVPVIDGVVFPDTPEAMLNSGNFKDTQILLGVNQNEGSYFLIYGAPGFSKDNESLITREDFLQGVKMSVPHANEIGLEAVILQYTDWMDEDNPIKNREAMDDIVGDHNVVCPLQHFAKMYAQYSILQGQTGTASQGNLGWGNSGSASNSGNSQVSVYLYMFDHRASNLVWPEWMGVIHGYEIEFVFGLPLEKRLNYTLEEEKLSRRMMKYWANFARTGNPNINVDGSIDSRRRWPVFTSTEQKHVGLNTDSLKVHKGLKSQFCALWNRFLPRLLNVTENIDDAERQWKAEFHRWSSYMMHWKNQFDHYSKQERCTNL
# Sequence of Cholinesterase (Equus caballus) (P81908 whole entry): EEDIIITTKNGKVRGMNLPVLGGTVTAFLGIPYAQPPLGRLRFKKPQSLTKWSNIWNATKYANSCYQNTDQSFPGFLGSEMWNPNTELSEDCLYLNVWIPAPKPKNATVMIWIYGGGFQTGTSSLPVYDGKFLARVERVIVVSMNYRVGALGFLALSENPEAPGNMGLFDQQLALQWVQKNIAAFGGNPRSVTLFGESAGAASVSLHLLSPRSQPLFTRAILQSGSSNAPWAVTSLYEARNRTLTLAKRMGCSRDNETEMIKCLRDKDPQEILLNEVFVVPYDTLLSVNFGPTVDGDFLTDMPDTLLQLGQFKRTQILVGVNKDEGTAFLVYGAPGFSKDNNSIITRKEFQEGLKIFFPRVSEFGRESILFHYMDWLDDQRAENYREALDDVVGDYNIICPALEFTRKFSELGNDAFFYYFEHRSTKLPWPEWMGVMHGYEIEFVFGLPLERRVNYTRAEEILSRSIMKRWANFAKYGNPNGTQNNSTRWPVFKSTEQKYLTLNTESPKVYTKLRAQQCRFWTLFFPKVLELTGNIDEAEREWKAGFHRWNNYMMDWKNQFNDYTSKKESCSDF
SMILES,inhibition [1] [%],inhibition [2] [%],pIC50 [3],Activity [4] [nm],Activity [5],Activity [6],"viability at 24 h, 30 µM [7] [%]","viability at 24 h, 100 µM [8] [%]",Activity [9],Activity [10] [%]
CCC(CC)CNc1ccc(O)c(CNc2cccc(OC(=O)N(C)CC)c2)c1,9.01,64.2,4.58,50,Active,Active,85.8,25.2,Active,–
Cc1c(C)c2c(c(C)c1O)CCC(C)(C(=O)O)O2 (configuration not stated) [TROLOX],–,–,4.63,–,–,–,–,–,–,24.3
CCN(C)C(=O)Nc1cccc(NC(=O)c2cccnc2O)c1,–,–,–,–,–,–,97.2,96.1,–,3.62
CCN(C)C(=O)Oc1cccc(NCc2ccccn2)c1,8.51,58.9,–,–,–,–,91.3,80.5,–,7.4
CCN(C)C(=O)Oc1cccc(CCNC(=O)c2cccnc2O)c1,5.43,53.7,–,–,–,–,106,99.4,–,2.21
CCN(C)C(=O)Oc1cccc(CCNCc2ccccc2O)c1,3.58,34.5,–,–,–,–,–,–,–,15.5
CCN(C)C(=O)Oc1cccc(CNCc2ccccc2O)c1,4.06,30.5,–,–,–,–,96.6,90.3,–,17.7
CCN(C)C(=O)Oc1cccc(CNC(=O)c2cccnc2O)c1,7.59,46.5,–,–,–,–,101,82.5,–,2.21
CCN(C)C(=O)Oc1cccc(NCc2ccccc2O)c1,8.13,38.5,–,–,–,–,103,80.3,–,13.8
CCN(C)C(=O)Oc1cccc(NC(=O)c2cccnc2O)c1,1.87,73.6,–,–,–,–,102,98.6,–,4.18
CCC(CC)CNc1ccc(O)c(CNCCc2cccc(OC(=O)N(C)CC)c2)c1,3.36,14.2,4.54,–,–,–,–,–,–,–
CCN(C)C(=O)Oc1cccc([C@H](C)N(C)C)c1,2.59,54.7,–,–,–,–,–,–,–,–
